These compounds were tested against T1, Androgen receptor (Rattus norvegicus, UniProt P15207).
T1 sequence (P15207 whole entry): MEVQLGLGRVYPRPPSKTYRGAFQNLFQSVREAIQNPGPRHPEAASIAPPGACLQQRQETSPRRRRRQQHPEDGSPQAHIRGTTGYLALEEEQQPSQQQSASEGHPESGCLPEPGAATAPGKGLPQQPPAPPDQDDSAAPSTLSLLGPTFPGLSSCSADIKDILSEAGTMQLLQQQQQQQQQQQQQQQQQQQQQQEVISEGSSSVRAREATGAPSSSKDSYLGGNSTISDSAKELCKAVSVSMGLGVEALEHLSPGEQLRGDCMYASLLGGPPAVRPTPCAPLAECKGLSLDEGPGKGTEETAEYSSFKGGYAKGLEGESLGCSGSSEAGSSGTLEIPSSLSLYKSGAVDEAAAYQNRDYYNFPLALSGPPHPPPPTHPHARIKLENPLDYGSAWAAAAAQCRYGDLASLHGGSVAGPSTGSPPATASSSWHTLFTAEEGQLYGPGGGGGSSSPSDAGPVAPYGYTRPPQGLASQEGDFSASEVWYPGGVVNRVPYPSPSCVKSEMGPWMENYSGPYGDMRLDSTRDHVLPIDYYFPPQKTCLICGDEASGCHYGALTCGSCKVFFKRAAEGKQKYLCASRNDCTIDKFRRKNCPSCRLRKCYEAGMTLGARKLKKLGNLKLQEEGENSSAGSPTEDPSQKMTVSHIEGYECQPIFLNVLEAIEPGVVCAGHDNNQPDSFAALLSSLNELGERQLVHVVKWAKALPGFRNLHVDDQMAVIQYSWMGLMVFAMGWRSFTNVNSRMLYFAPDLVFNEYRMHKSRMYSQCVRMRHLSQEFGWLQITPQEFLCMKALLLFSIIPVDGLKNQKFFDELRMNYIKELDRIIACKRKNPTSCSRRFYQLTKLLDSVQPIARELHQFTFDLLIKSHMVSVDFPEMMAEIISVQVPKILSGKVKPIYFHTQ
`Clc1ccc(-c2ccc(Cl)cc2Cl)c(Cl)c1` gave an IC50 of 17 µM. `C[C@]12CC[C@@H]3c4ccc(O)c(O)c4CC[C@H]3[C@@H]1CC[C@@H]2O` gave an IC50 of 2.57 µM. For `CCC(c1ccc(O)c(O)c1)C(CC)c1ccc(O)c(O)c1` (stereo unspecified), the IC50 was 37.2 µM. For `Cc1ccc2c(c1)CC[C@@H]1[C@@H]2CC[C@]2(C)[C@@H](O)[C@@](C)(O)C[C@@H]12`, the IC50 was 37.2 µM. For `Cc1ccc2c(c1)CC[C@@H]1[C@@H]2CC[C@]2(C)[C@@H](O)[C@H](O)C[C@@H]12`, the IC50 was 53.7 µM. `c1ccc([C@H]2COC[C@H]2c2ccccc2)cc1` was tested, and the IC50 was 28.8 µM. For `CCCCCCCOc1ccc(O)cc1`, the IC50 was 14.8 µM. In the case of `CCCCCCCCCc1ccc(OCCOCCO)cc1`, the IC50 is reported as 18.2 µM. `O=C(c1ccccc1)c1ccc(O)cc1` gave an IC50 of 182 µM. For `C[C@]12CC[C@@H](O)C[C@@H]1CC[C@@H]1[C@@H]2CC[C@]2(C)C(O)CC[C@@H]12` (stereo partly specified), the IC50 was 2 µM. `C[C@]12CC[C@@H]3c4ccccc4CC[C@H]3[C@@H]1CC[C@@H]2O` showed an IC50 of 0.0891 µM. `O=C(c1ccc(O)cc1)c1ccc(O)cc1` showed an IC50 of 145 µM. Work on `COc1ccc(C(=C(Cl)Cl)c2ccc(OC)cc2)cc1` yielded an IC50 of 49 µM. In the case of `COc1ccc(C(=C(Cl)Cl)c2ccc(O)cc2)cc1`, the IC50 is reported as 20.4 µM. In the case of `O=C1CC(c2ccccc2)Oc2ccc(O)cc21` (stereo unspecified), the IC50 is reported as 18.6 µM. `Clc1ccc(-c2ccccc2Cl)cc1` was tested, and the IC50 was 16.2 µM. In the case of `Cl/C=C(\c1ccc(Cl)cc1)c1ccccc1Cl`, the IC50 is reported as 10.5 µM. In the case of `CCC(c1ccc(O)cc1)C(CC)c1ccc(OC)cc1` (stereo unspecified), the IC50 is reported as 12.9 µM. Compound `CC/C(=C(\c1ccc(O)cc1)c1ccc(OCCN(C)C)cc1)c1ccccc1` has an IC50 of 9.33 µM. `C[C@@]12CCC[C@H]1[C@@H]1CCc3cc(O)ccc3[C@H]1CC2` showed an IC50 of 41.7 µM. `O=C1C[C@@H]2C(=O)CC[C@H]2[C@@H]2CC[C@H]3CCCC[C@@H]3[C@@H]12` gave an IC50 of 0.0891 µM. `Oc1ccc(-c2cc(Cl)c(Cl)c(Cl)c2Cl)cc1` showed an IC50 of 16.2 µM. Work on `C[C@]12CCCC[C@@H]1CC[C@@H]1[C@@H]2CC[C@]2(C)[C@@H](O)CC[C@@H]12` yielded an IC50 of 0.011 µM. `C[C@]12CC[C@@H]3c4cc(O)c(O)cc4CC[C@H]3[C@@H]1CC[C@@H]2O` gave an IC50 of 8.51 µM. In the case of `Oc1c(Cl)cc(-c2cc(Cl)c(O)c(Cl)c2)cc1Cl`, the IC50 is reported as 38 µM. With `CC1CC2=CC(=O)CC[C@@H]2[C@H]2CC[C@@]3(C)[C@@H](CC[C@]3(C)O)[C@H]12` (single isomer, unassigned) [MIBOLERONE] the IC50 was 0.00166 µM. For `C[C@H]1CCCC(=O)CCCCCc2cc(O)cc(O)c2C(=O)O1` (stereo in doubt; form 1) [ZEARALANONE], the IC50 was 42.7 µM. With `C[C@H]1CCCC(=O)CCCCCc2cc(O)cc(O)c2C(=O)O1` (stereo in doubt; form 2) [ZEARALANONE] the IC50 was 10 µM. `O=C(O)COc1cc(Cl)c(Cl)cc1Cl` [2,4,5-TRICHLOROPHENOXYACETIC ACID] was tested, and the IC50 was 457 µM. `O=C1CC(c2ccc(O)cc2)Oc2ccccc21` (stereo unspecified) [4'-HYDROXY-FLAVANONE] gave an IC50 of 57.5 µM. Work on `O=C(/C=C/c1ccccc1)c1ccc(O)cc1` [4'-HYDROXYCHALCONE] yielded an IC50 of 57.5 µM. With `O=C(/C=C/c1ccc(O)cc1)c1ccccc1` [4-HYDROXYCHALCONE] the IC50 was 47.9 µM. Work on `O=c1cc(-c2ccccc2)oc2ccc(O)cc12` [6-HYDROXYFLAVONE] yielded an IC50 of 182 µM. Compound `O=c1cc(-c2ccccc2)oc2cc(O)ccc12` [7-HYDROXYFLAVONE] has an IC50 greater than 42.7 µM. `Oc1ccc(/C=C/c2ccccc2)cc1` [(E)-4-STYRYLPHENOL] gave an IC50 of 41.7 µM. Work on `C[C@]12CCC(=O)C=C1CC[C@@H]1[C@@H]2[C@@H](O)C[C@]2(C=O)[C@@H](C(=O)CO)CC[C@@H]12` [ALDOSTERONE] yielded an IC50 greater than 42.7 µM. Compound `Oc1ccc([C@H]2COc3cc(O)ccc3C2)cc1` [AUS-131] has an IC50 of 74.1 µM. `O=C(c1ccccc1)c1ccccc1` [BENZOPHENONE] showed an IC50 of 129 µM. `CC(C)(c1ccc(O)cc1)c1ccc(O)cc1` [BISPHENOL A] gave an IC50 of 74.1 µM. `O=C(/C=C/c1ccccc1)c1ccccc1` [CHALCONE] showed an IC50 of 64.6 µM. `ClC1=C(Cl)C2(Cl)C3C(Cl)C(Cl)CC3C1(Cl)C2(Cl)Cl` (stereo unspecified) [CHLORDANE] was tested, and the IC50 was 10 µM. Compound `CCN(CC)CCOc1ccc(/C(=C(\Cl)c2ccccc2)c2ccccc2)cc1` [CLOMIPHENE] has an IC50 of 13.5 µM. `C[C@]12CC[C@H]3[C@@H](CCC4(OC(=O)c5ccccc5)CC(=O)CC[C@]34C)[C@@H]1CC[C@@H]2O` (stereo partly specified) [DHT BENZOATE] showed an IC50 of 0.257 µM. In the case of `COc1cc(C(=C(Cl)Cl)c2ccc(O)cc2)ccc1O` [DIHYDROXYMETHOXYCHLOROLEFIN], the IC50 is reported as 6.31 µM. For `C/C(=C(/C)c1ccc(O)cc1)c1ccc(O)cc1` [DIMETHYLSTILBESTROL], the IC50 was 14.1 µM. `O=S1OCC2C(CO1)C1(Cl)C(Cl)=C(Cl)C2(Cl)C1(Cl)Cl` (stereo unspecified) [ENDOSULFAN] showed an IC50 of 23.4 µM. `O=C1CC(c2ccccc2)Oc2ccccc21` (stereo unspecified) [FLAVANONE] showed an IC50 of 55 µM. For `O=c1cc(-c2ccccc2)oc2ccccc12` [FLAVONE], the IC50 was 77.6 µM. `O=c1c(-c2ccc(O)cc2)coc2cc(O)cc(O)c12` [GENISTEIN] showed an IC50 of 85.1 µM. With `C[C@]12CCC(=O)C=C1CC[C@@H]1[C@@H]2[C@@H](O)C[C@@]2(C)[C@H]1CC[C@]2(O)C(=O)CO` [HYDROCORTISONE] the IC50 was 182 µM. Compound `Oc1ccc(OCc2ccccc2)cc1` [MONOBENZONE] has an IC50 of 234 µM. `COc1ccc2c(c1)CCC(c1ccccc1)=C2c1ccc(OCCN2CCCC2)cc1` [NAFOXIDINE] gave an IC50 of 12.9 µM. `ClC(Cl)=C(c1ccc(Cl)cc1)c1ccccc1Cl` [O,P'-DDE (1,1-(O,P'-DICHLORODIPHENYL)-2,2 DICHLOROETHENE)] gave an IC50 of 20.4 µM. With `Oc1ccc(/C=C/c2ccc(O)cc2)cc1` [TRANS-4,4'-DIHYDROXYSTILBENE] the IC50 was 83.2 µM. In the case of `C[C@]12C=CC3=C4CCC(=O)C=C4CCC3C1CC[C@@H]2O` (stereo partly specified) [TRENBOLONE], the IC50 is reported as 0.00263 µM. For `COc1cc(C=O)ccc1O` [VANILLIN], the IC50 was greater than 427 µM.
